{
  "source": "patent US4758566A",
  "about": "“2-(1-piperazinyl)-4-substituted phenylquinoline derivatives, processes for the preparation thereof, and pharmaceutical composition containing the same” (Dainippon Pharmaceutical Co., Ltd., priority 1984, dated 1988)",
  "origin": "cited, not measured here",
  "key": {"[1]": {"settings": "U.S. Pat. Nos. 3,542,785 and 3,668,207; cited from earlier work"}, "[2]": {"settings": "U.S. Pat. Nos. 3,542,785 and 3,668,207; cited from earlier work", "remark": "listed apart in the source"}},
  "data": [
    {"smiles": "CN1CCN(c2cc(-c3ccccc3)c3cc(Cl)ccc3n2)CC1", "note": "[6-chloro-2-(4-methyl-1-piperazinyl)-4-phenylquinoline]", "values": [
      {"measurement": "antiinflammatory activity", "setting": "[1]", "result": "have antiinflammatory and diuretic activities"},
      {"measurement": "diuretic activity", "setting": "[2]", "result": "have antiinflammatory and diuretic activities"}
    ]}
  ]
}
